According to patent publication US8629102B2, “3-hydroxyisothiazole 1-oxide derivatives” (Mochida Pharmaceutical Co., Ltd., priority 2011, dated 2014):

Molecular target: T1, GPR40 of human origin (Homo sapiens, UniProt O14842)
T1 construct: expressed in transfected cells
Experiment: Agonist action on GPR40 of human origin (intracellular Ca2+ change)
Format: cell-based
Settings: CHO cell strain stably expressing GPR40 of human origin; change in Ca2+ concentration, fluorescent calcium indicator
Protocol: Pharmacological Test Example 1: Agonist Action on GPR40 of Human Origin
A CHO cell strain stably expressing GPR40 of human origin was used to determine the agonist action of a subject compound. This cell strain was seeded in a clear bottom 96 well plate at 4×10^4 cells/100 pt/well. The cell strain iswas cultured in a CO2 incubator overnight using a Ham's F-12 medium containing a 10% fetal bovine serum, 100 U/mL penicillin, 0.1 mg/mL streptomycin, and 400 μg/mL Geneticin. Calcium 4 Assay Kit (Molecular Devices) was used as a fluorescent calcium indicator. One mL of 77 mg/mL probenecid (Invitrogen) was added to 100 mL of a calcium indicator solution to prepare a solution (loading solution) mixed with a 20 mM HEPES-containing Hanks' balanced salt solution (HBSS) in equal proportions. To the cells from which the culture solution is removed, 200 μl of the loading solution was added, and the cells were cultured in a CO2 incubator for 1 hour. The subject compound was diluted with a 20 mM HEPES-containing HBSS and was added to the cells by 50 μL, and the change in the Ca^2+ concentration was measured with an intracellular ion analyzer. The EC50 value of the subject compound was calculated using the dose-response curve of fluorescence intensity variation.

T1 sequence (O14842 whole entry): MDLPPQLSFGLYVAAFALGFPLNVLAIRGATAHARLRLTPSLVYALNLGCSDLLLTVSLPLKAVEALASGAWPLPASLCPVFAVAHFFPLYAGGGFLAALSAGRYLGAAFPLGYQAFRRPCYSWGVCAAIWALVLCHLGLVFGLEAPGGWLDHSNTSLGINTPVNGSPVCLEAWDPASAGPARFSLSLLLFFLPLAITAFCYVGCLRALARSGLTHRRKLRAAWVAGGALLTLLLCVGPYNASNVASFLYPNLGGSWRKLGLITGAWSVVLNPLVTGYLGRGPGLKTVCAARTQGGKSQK

SMILES | EC50
Cc1ccc(-c2cccc3c2CC[C@H]3Oc2ccc(-c3cc(O)n[s+]3[O-])cc2)c2ccccc12 (stereo partly drawn) [Example 50, 5-(4-(((R)-4-(4-methylnaphthalen-1-yl)-2,3-dihydro-1H-inden-1-yl)oxy)phenyl)-3-hydroxyisothiazole 1-oxide] | 300 to 3000 nM
[O-][s+]1nc(O)cc1-c1ccc(O[C@@H]2CCc3c(-c4ccc(Cl)cc4)cccc32)cc1 (stereo partly drawn) [Example 6, 5-(4-(((R)-4-(4-chlorophenyl)-2,3-dihydro-1H-inden-1-yl)oxy)phenyl)-3-hydroxyisothiazole 1-oxide] | 300 to 3000 nM
CC(C)c1ccccc1-c1cccc2c1CC[C@H]2Oc1ccc(-c2cc(O)n[s+]2[O-])cc1 (stereo partly drawn) [Example 34, 5-(4-(((R)-4-(2-isopropylphenyl)-2,3-dihydro-1H-inden-1-yl)oxy)phenyl)-3-hydroxyisothiazole 1-oxide] | 300 to 3000 nM
CCOc1cccc(-c2cccc3c2CC[C@H]3Oc2ccc(-c3cc(O)n[s+]3[O-])cc2)c1 (stereo partly drawn) [Example 32, 5-(4-(((R)-4-(3-ethoxyphenyl)-2,3-dihydro-1H-inden-1-yl)oxy)phenyl)-3-hydroxyisothiazole 1-oxide] | 300 to 3000 nM
COc1cc(Oc2cccc3c2CC[C@H]3Oc2ccc(-c3cc(O)n[s+]3[O-])cc2)ccn1 (stereo partly drawn) [Example 114, 3-hydroxy-5-(4-(((R)-4-((2-methoxypyridin-4-yl)oxy)-2,3-dihydro-1H-inden-1-yl)oxy)phenyl)isothiazole 1-oxide] | < 300 nM
Cc1nc(OCCC(C)(C)O)ccc1Oc1cccc2c1CC[C@H]2Oc1ccc(-c2cc(O)n[s+]2[O-])cc1 (stereo partly drawn) [Example 101, 3-hydroxy-5-(4-(((R)-4-((6-(3-hydroxy-3-methylbutoxy)-2-methylpyridin-3-yl)oxy)-2,3-dihydro-1H-inden-1-yl)oxy)phenyl)isothiazole 1-oxide] | < 300 nM
[O-][s+]1nc(O)cc1-c1ccc(O[C@@H]2CCc3c(-c4ccccc4C(F)(F)F)cccc32)cc1 (stereo partly drawn) [Example 64, 5-(4-(((R)-4-(2-trifluoromethylphenyl)-2,3-dihydro-1H-inden-1-yl)oxy)phenyl)-3-hydroxyisothiazole 1-oxide] | < 300 nM
[O-][s+]1nc(O)cc1-c1ccc(O[C@@H]2CCc3c(-c4ccc(Cl)cc4F)cccc32)cc1 (stereo partly drawn) [Example 16, 5-(4-(((R)-4-(4-chloro-2-fluorophenyl)-2,3-dihydro-1H-inden-1-yl)oxy)phenyl)-3-hydroxyisothiazole 1-oxide] | 300 to 3000 nM
CCOCCOc1ccc(Oc2cccc3c2CC[C@H]3Oc2ccc(-c3cc(O)n[s+]3[O-])cc2)c(C)n1 (stereo partly drawn) [Example 102, 5-(4-(((R)-4-((6-(2-ethoxyethoxy)-2-methylpyridin-3-yl)oxy)-2,3-dihydro-1H-inden-1-yl)oxy)phenyl)-3-hydroxyisothiazole 1-oxide] | < 300 nM
COc1ccc(-c2cccc3c2CC[C@H]3Oc2ccc(-c3cc(O)n[s+]3[O-])cc2)cc1 (stereo partly drawn) [Example 23, 5-(4-(((R)-4-(4-methoxyphenyl)-2,3-dihydro-1H-inden-1-yl)oxy)phenyl)-3-hydroxyisothiazole 1-oxide] | < 300 nM
CC(C)Oc1ccc(-c2cccc3c2CC[C@H]3Oc2ccc(-c3cc(O)n[s+]3[O-])cc2)cc1 (stereo partly drawn) [Example 31, 5-(4-(((R)-4-(4-isopropoxyphenyl)-2,3-dihydro-1H-inden-1-yl)oxy)phenyl)-3-hydroxyisothiazole 1-oxide] | 300 to 3000 nM
COc1ccc(Cl)cc1-c1cccc2c1CC[C@H]2Oc1ccc(-c2cc(O)n[s+]2[O-])cc1 (stereo partly drawn) [Example 55, 5-(4-(((R)-4-(5-chloro-2-methoxyphenyl)-2,3-dihydro-1H-inden-1-yl)oxy)phenyl)-3-hydroxyisothiazole 1-oxide] | 300 to 3000 nM
[O-][s+]1nc(O)cc1-c1ccc(OC2COc3c(Br)cccc32)cc1 (single isomer, unassigned) [Example 150, 5-(4-((7-bromo-2,3-dihydrobenzofuran-3-yl)oxy)phenyl)-3-hydroxyisothiazole 1-oxide] | < 300 nM
[O-][s+]1nc(O)cc1-c1ccc(O[C@@H]2CCc3c(-c4cncc(Cl)c4)cccc32)cc1 (stereo partly drawn) [Example 73, 5-(4-(((R)-4-(5-chloropyridin-3-yl)-2,3-dihydro-1H-inden-1-yl)oxy)phenyl)-3-hydroxyisothiazole 1-oxide] | < 300 nM
COc1ccc(C)cc1-c1cccc2c1CC[C@H]2Oc1ccc(-c2cc(O)n[s+]2[O-])cc1 (stereo partly drawn) [Example 45, 5-(4-(((R)-4-(2-methoxy-5-methylphenyl)-2,3-dihydro-1H-inden-1-yl)oxy)phenyl)-3-hydroxyisothiazole 1-oxide] | < 300 nM
[O-][s+]1nc(O)cc1-c1ccc(O[C@@H]2CCc3c(Oc4cccc(OC(F)(F)F)c4)cccc32)cc1 (stereo partly drawn) [Example 99, 3-hydroxy-5-(4-(((R)-4-(3-(trifluoromethoxy)phenoxy)-2,3-dihydro-1H-inden-1-yl)oxy)phenyl)isothiazole 1-oxide] | < 300 nM
Cc1ccc(-c2cccc3c2CC[C@H]3Oc2ccc(-c3cc(O)n[s+]3[O-])cc2)c(C)c1 (stereo partly drawn) [Example 36, 5-(4-(((R)-4-(2,4-dimethylphenyl)-2,3-dihydro-1H-inden-1-yl)oxy)phenyl)-3-hydroxyisothiazole 1-oxide] | < 300 nM
Cc1nc(OCCC(C)(C)O)ccc1-c1cccc2c1OCC2Oc1ccc(-c2cc(O)n[s+]2[O-])cc1 (single isomer, unassigned) [Example 154-a, 3-hydroxy-5-(4-((7-(6-(3-hydroxy-3-methylbutoxy)-2-methylpyridin-3-yl)-2,3-dihydrobenzofuran-3-yl)oxy)phenyl)isothiazole 1-oxide] | < 300 nM
[O-][s+]1nc(O)cc1-c1ccc(O[C@@H]2CCc3c2cccc3N2CCCc3ccccc32)cc1 (stereo partly drawn) [Example 158, 5-(4-(((R)-4-(3,4-dihydroquinoline-1(2H)-yl)-2,3-dihydro-1H-inden-1-yl)oxy)phenyl)-3-hydroxyisothiazole 1-oxide] | < 300 nM
[O-][s+]1nc(O)cc1-c1ccc(OCc2ccc(Oc3ccccc3)cc2)cc1 (single isomer, unassigned) [Example 160, 3-hydroxy-5-(4-((4-phenoxybenzyl)oxy)phenyl)isothiazole 1-oxide] | < 300 nM
Cc1cccc(C)c1Oc1cccc2c1CC[C@H]2Oc1ccc(-c2cc(O)n[s+]2[O-])cc1 (stereo partly drawn) [Example 96, 5-(4-(((R)-4-(2,6-dimethylphenoxy)-2,3-dihydro-1H-inden-1-yl)oxy)phenyl)-3-hydroxyisothiazole 1-oxide] | < 300 nM

The remaining lines, values ahead:

EC50 | SMILES
< 300 nM | N#Cc1ccc(Oc2cccc3c2CC[C@H]3Oc2ccc(-c3cc(O)n[s+]3[O-])cc2)nc1 (stereo partly drawn) [Example 118, 6-(((1R)-1-(4-(3-hydroxy-1-oxidoisothiazol-5-yl)phenoxy)-2,3-dihydro-1H-inden-4-yl)oxy)nicotinonitrile]
< 300 nM | Cc1ccc(-c2cccc3c2CC[C@H]3Oc2ccc(-c3cc(O)n[s+]3[O-])cc2)cn1 (stereo partly drawn) [Example 71, 5-(4-(((R)-4-(6-methylpyridin-3-yl)-2,3-dihydro-1H-inden-1-yl)oxy)phenyl)-3-hydroxyisothiazole 1-oxide]
< 300 nM | CS(=O)(=O)c1ccc(Oc2cccc3c2CC[C@H]3Oc2ccc(-c3cc(O)n[s+]3[O-])cc2)cc1 (stereo partly drawn) [Example 107, 3-hydroxy-5-(4-(((R)-4-(4-(methylsulfonyl)phenoxy)-2,3-dihydro-1H-inden-1-yl)oxy)phenyl)isothiazole 1-oxide]
< 300 nM | [O-][s+]1nc(O)cc1-c1ccc(O[C@@H]2CCc3c(-c4cc(F)cc(F)c4)cccc32)cc1 (stereo partly drawn) [Example 12, 5-(4-(((R)-4-(3,5-difluorophenyl)-2,3-dihydro-1H-inden-1-yl)oxy)phenyl)-3-hydroxyisothiazole 1-oxide]
< 300 nM | [O-][s+]1nc(O)cc1-c1ccc(O[C@@H]2CCc3c(Oc4cccc(C(F)(F)F)c4)cccc32)cc1 (stereo partly drawn) [Example 84, 3-hydroxy-5-(4-(((R)-4-(3-(trifluoromethyl)phenoxy)-2,3-dihydro-1H-inden-1-yl)oxy)phenyl)isothiazole 1-oxide]
< 300 nM | [O-][s+]1nc(O)cc1-c1ccc(O[C@@H]2CCc3c(Br)cccc32)cc1 (single isomer, unassigned) [Example 3]
< 300 nM | [O-][s+]1nc(O)cc1-c1ccc(OC2COc3c(Oc4ccccc4)cccc32)cc1 (single isomer, unassigned) [Example 145-a, 3-hydroxy-5-(4-((7-phenoxy-2,3-dihydrobenzofuran-3-yl)oxy)phenyl)isothiazole 1-oxide]
< 300 nM | COCCN(C)C(=O)c1ccc(Oc2cccc3c2CC[C@H]3Oc2ccc(-c3cc(O)n[s+]3[O-])cc2)cc1 (stereo partly drawn) [Example 146, 4-(((R)-1-(4-(3-hydroxy-1-oxidoisothiazol-5-yl)phenoxy)-2,3-dihydro-1H-inden-4-yl)oxy)-N-(2-methoxyethyl)-N-methylbenzamide]
< 300 nM | COc1cccc(-c2cccc3c2CC[C@H]3Oc2ccc(-c3cc(O)n[s+]3[O-])cc2)c1F (stereo partly drawn) [Example 59, 5-(4-(((R)-4-(2-fluoro-3-methoxyphenyl)-2,3-dihydro-1H-inden-1-yl)oxy)phenyl)-3-hydroxyisothiazole 1-oxide]
< 300 nM | COc1ccc(OC)c(-c2cccc3c2CC[C@H]3Oc2ccc(-c3cc(O)n[s+]3[O-])cc2)c1 (stereo partly drawn) [Example 54, 5-(4-(((R)-4-(2,5-dimethoxyphenyl)-2,3-dihydro-1H-inden-1-yl)oxy)phenyl)-3-hydroxyisothiazole 1-oxide]
